# Measured values published in publication PMC8612954 (Chemosphere, 2021).
# Read-outs that look alike come from different tables or passages of the source.
# Key:
# [1] = target: T1, bovine serum albumin (BSA) (Bos taurus, UniProt P02769); experiment: Fluorescence quenching of BSA by PFAS; type: binding; settings: for nHill (Hill coefficient, binding cooperativity): Hill model fit, 25°C and 35°C, independent of temperature; for shift in wavelength of maximum fluorescence emission of BSA: maximum shift on PFAS binding (Figure S5)
# [2] = target: T1, bovine serum albumin (BSA); settings: ref Allendorf et al. (2019), cited from earlier work; for Ka (association constant): PFAS-BSA binding
# [3] = target: T1, bovine serum albumin (BSA); experiment: Equilibrium dialysis; type: binding; settings: for f (fraction of bound PFAS) / KPW (protein/water partition coefficient): 37°C, standard error in parentheses; for f (fraction of bound PFAS): 10 µM BSA in PBS
# serum albumin = settings: ref Bischel et al. (2011); cited from earlier work
# T1 sequence (P02769 25-607): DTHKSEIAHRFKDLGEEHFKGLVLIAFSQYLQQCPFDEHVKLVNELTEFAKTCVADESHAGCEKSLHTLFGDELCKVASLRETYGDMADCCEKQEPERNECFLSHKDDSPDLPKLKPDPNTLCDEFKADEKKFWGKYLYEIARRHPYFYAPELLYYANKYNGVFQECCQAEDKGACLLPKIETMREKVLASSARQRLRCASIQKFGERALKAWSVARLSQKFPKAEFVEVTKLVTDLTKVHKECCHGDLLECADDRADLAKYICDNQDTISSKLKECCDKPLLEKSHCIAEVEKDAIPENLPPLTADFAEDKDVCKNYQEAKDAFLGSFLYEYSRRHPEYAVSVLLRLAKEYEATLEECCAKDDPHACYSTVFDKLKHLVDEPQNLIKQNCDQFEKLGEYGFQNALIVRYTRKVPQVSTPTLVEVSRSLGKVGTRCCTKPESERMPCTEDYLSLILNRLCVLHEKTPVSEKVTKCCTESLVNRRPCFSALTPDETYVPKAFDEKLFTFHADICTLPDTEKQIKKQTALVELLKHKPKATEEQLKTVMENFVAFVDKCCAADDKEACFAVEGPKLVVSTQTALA
smiles,measurement,setting,value
"O=C(O)C(F)(OC(F)(F)C(F)(F)C(F)(F)F)C(F)(F)F (stereo not shown) [Gen X, 2,3,3,3-tetrafluoro-2-(heptafluoropropoxy)propanoate]","nHill (Hill coefficient, binding cooperativity)",[1],noncooperative
same,shift in wavelength of maximum fluorescence emission of BSA,[1],do not show marked shifts
same,Ka (association constant),[2],0.23 (0.05) 10^5 M^−1
same,f (fraction of bound PFAS),[3],0.265 (0.006)
same,KPW (protein/water partition coefficient),[3]; PFAS:BSA molar ratio 2:1,0.07 (0.002) 10^5
"O=S(=O)(O)C(F)(F)C(F)(F)C(F)(F)C(F)(F)F [PFBS, perfluorobutanesulfonic acid]",f (fraction of bound PFAS),serum albumin,≥ 0.99
same,"fa (fractional accessibility, modified Stern-Volmer equation)","[1]; 1.25 µM BSA, pH 7.4 PBS, values from Table S3",~ 0.3
same,"nHill (Hill coefficient, binding cooperativity)",[1],< 1
same,shift in wavelength of maximum fluorescence emission of BSA,[1],do not show marked shifts
same,Ka (association constant),[2],1.1 (0.28) 10^5 M^−1
same,f (fraction of bound PFAS),[2],0.44
same,f (fraction of bound PFAS),[3],0.249 (0.064)
same,KPW (protein/water partition coefficient),[3]; PFAS:BSA molar ratio 2:1,0.07 (0.02) 10^5
"O=C(O)C(F)(F)C(F)(F)C(F)(F)C(F)(F)C(F)(F)C(F)(F)C(F)(F)C(F)(F)C(F)(F)F [PFDA, perfluorodecanoic acid]","nHill (Hill coefficient, binding cooperativity)",[1],< 1
same,shift in wavelength of maximum fluorescence emission of BSA,[1],−10 nm
same,Ka (association constant),[2],36 (3.1) 10^5 M^−1
same,f (fraction of bound PFAS),[3],0.983 (0.004)
same,KPW (protein/water partition coefficient),[3]; PFAS:BSA molar ratio 0.1:1,12.66 (3.23) 10^5
"O=S(=O)(O)C(F)(F)C(F)(F)C(F)(F)C(F)(F)C(F)(F)C(F)(F)F [PFHxS, perfluorohexanesulfonic acid]",f (fraction of bound PFAS),serum albumin,≥ 0.99
same,"nHill (Hill coefficient, binding cooperativity)",[1],positive binding cooperativity
same,shift in wavelength of maximum fluorescence emission of BSA,[1],−10 nm
same,Ka (association constant),[2],44 (3.5) 10^5 M^−1
same,f (fraction of bound PFAS),[2],0.62
same,Kd,[3],1540 nM
same,f (fraction of bound PFAS),[3],0.842 (0.008)
same,KPW (protein/water partition coefficient),[3]; PFAS:BSA molar ratio 0.1:1,1.11 (0.06) 10^5
"O=C(O)C(F)(F)C(F)(F)C(F)(F)C(F)(F)C(F)(F)C(F)(F)C(F)(F)C(F)(F)F [PFNA, perfluorononanoic acid]","nHill (Hill coefficient, binding cooperativity)",[1],noncooperative
same,shift in wavelength of maximum fluorescence emission of BSA,[1],−13 nm
same,Ka (association constant),[2],14 (2.2) 10^5 M^−1
same,f (fraction of bound PFAS),[3],0.975 (0.005)
same,KPW (protein/water partition coefficient),[3]; PFAS:BSA molar ratio 0.1:1,8.52 (1.62) 10^5
"O=C(O)C(F)(F)C(F)(F)C(F)(F)C(F)(F)C(F)(F)C(F)(F)C(F)(F)F [PFOA, perfluorooctanoic acid]",f (fraction of bound PFAS),serum albumin,≥ 0.99
same,"nHill (Hill coefficient, binding cooperativity)",[1],positive binding cooperativity
same,Ka (association constant),[2],11 (1.1) 10^5 M^−1
same,f (fraction of bound PFAS),[2],0.44
same,Kd,[3],2650 nM
same,f (fraction of bound PFAS),[3],0.755 (0.038)
same,KPW (protein/water partition coefficient),[3]; PFAS:BSA molar ratio 0.1:1,0.66 (0.13) 10^5
"O=S(=O)(O)C(F)(F)C(F)(F)C(F)(F)C(F)(F)C(F)(F)C(F)(F)C(F)(F)C(F)(F)F [PFOS, perfluorooctanesulfonic acid]","nHill (Hill coefficient, binding cooperativity)",[1],positive binding cooperativity
same,shift in wavelength of maximum fluorescence emission of BSA,[1],−7 nm
same,Ka (association constant),[2],32 (4.9) 10^5 M^−1
same,f (fraction of bound PFAS),[3],0.942 (0.004)
same,KPW (protein/water partition coefficient),[3]; PFAS:BSA molar ratio 0.1:1,3.39 (0.27) 10^5
